From publication PMC6627609, “Targeting Quorum Sensing: High-Throughput Screening to Identify Novel LsrK Inhibitors” (International Journal of Molecular Sciences, 2019)
Counter-ions that a name gives are not always drawn.

target: LsrK (Salmonella typhimurium, UniProt Q8ZKQ6); test: biochemical; type: biochemical, S. typhimurium; settings: not given
Sequence (Q8ZKQ6 whole entry): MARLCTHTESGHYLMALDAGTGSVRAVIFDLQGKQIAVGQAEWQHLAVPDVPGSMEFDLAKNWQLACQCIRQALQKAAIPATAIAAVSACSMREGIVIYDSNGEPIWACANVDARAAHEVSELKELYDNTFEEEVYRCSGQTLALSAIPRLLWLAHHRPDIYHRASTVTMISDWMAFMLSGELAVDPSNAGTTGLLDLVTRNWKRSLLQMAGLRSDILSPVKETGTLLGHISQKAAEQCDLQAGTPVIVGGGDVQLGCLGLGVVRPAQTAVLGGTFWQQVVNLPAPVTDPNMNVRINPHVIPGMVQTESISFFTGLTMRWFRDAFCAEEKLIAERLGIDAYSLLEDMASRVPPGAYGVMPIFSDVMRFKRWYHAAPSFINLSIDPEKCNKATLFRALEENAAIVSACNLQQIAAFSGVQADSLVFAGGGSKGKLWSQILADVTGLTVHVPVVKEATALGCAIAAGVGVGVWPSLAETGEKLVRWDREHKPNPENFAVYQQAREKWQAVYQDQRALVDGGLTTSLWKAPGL

Compared with `C[C@@H]1C/C=C/C=C/C=C/C=C/[C@H](O[C@@H]2O[C@H](C)[C@@H](O)[C@H](N)[C@@H]2O)C[C@@H]2O[C@](O)(C[C@@H](O)C[C@H]3O[C@@H]3/C=C/C(=O)O1)C[C@H](O)[C@H]2C(=O)O` [NATAMYCIN], `CO[C@@H]1[C@@H](OC(N)=O)[C@@H](O)[C@H](Oc2ccc3c(O)c(NC(=O)c4ccc(O)c(CC=C(C)C)c4)c(=O)oc3c2C)OC1(C)C` [NOVOBIOCIN SODIUM] is lower in inhibition at 50 µM: 12% for the first, 0% for the second.

First: CC(C)[C@H]1CC[C@H](C(=O)N[C@H](Cc2ccccc2)C(=O)O)CC1 [NATEGLINIDE]
Second: O=C(CCNNC(=O)c1ccncc1)NCc1ccccc1 [NIALAMIDE]
The inhibition at 50 µM of the first is lower: 1% for the first, 3% for the second.

`CN1CCOC(c2ccccc2)c2ccccc2C1` (stereo not shown) [NEFOPAM] and `c1ccc2c(c1)[nH]c1cnccc12` [NORHARMAN] are the same in inhibition at 50 µM: 1% for the first, 1% for the second.

`CC(C)=CCC/C(C)=C\CO` [NEROL] and `NCCC[C@H](N)C(=O)O` [ORNITHINE] are the same in inhibition at 50 µM: 1% for the first, 1% for the second.

`NC(=O)c1cccnc1` [NIACINAMIDE] and `OCc1cccnc1` [NICOTINYL ALCOHOL TARTRATE] are the same in inhibition at 50 µM: 1% for the first, 1% for the second.

Going from `O=C(Nc1ccc([N+](=O)[O-])cc1Cl)c1cc(Cl)ccc1O` [NICLOSAMIDE] to `CCOC(=O)C1=C(C)NC(C)=C(C(=O)OC)C1c1cccc([N+](=O)[O-])c1` (stereo not shown) [NITRENDIPINE], the inhibition at 50 µM rises from 0% to 1%.

Going from `COC(=O)C1=C(C)NC(C)=C(C(=O)OC)C1c1ccccc1[N+](=O)[O-]` [NIFEDIPINE] to `COC(=O)C1=C(C)NC(C)=C(C(=O)OCC(C)C)C1c1ccccc1[N+](=O)[O-]` (stereo not shown) [NISOLDIPINE], the inhibition at 50 µM rises from 98% to 154%.

`O=C(O)C1CCCNC1` (stereo not shown) [NIPECOTIC ACID] and `C#C[C@]1(O)CC[C@H]2[C@@H]3CCC4=CC(=O)CC[C@@H]4[C@H]3CC[C@@]21C` [NORETHINDRONE] are the same in inhibition at 50 µM: 0% for the first, 0% for the second.

First: NC[C@H](O)c1ccc(O)c(O)c1 [NOREPINEPHRINE, reference compound]
Second: NCC(O)c1ccc(O)cc1 (stereo not shown) [OCTOPAMINE HYDROCHLORIDE]
The inhibition at 50 µM of the first is higher: 74% for the first, 2% for the second.

Going from `C#C[C@]1(O)CC[C@H]2[C@@H]3CCC4=C(CCC(=O)C4)[C@H]3CC[C@@]21C` [NORETHYNODREL] to `CC1COc2c(N3CCN(C)CC3)c(F)cc3c(=O)c(C(=O)O)cn1c23` (stereo not shown) [OFLOXACIN], the inhibition at 50 µM rises from 1% to 4%.

Compared with `COc1ccc2c(c1OC)C(=O)O[C@@H]2[C@H]1c2c(cc3c(c2OC)OCO3)CCN1C` [NOSCAPINE HYDROCHLORIDE], `COc1ccc2[nH]c([S+]([O-])Cc3ncc(C)c(OC)c3C)nc2c1` (stereo not shown) [OMEPRAZOLE] is higher in inhibition at 50 µM: 1% for the first, 6% for the second.

First: COC1=CC(=O)C(O)=C/C1=C\C=C\c1ccccc1 [OBTUSAQUINONE]
Second: COc1ccc(CC(=O)c2ccc(O)cc2O)cc1 [ONONETIN]
The inhibition at 50 µM of the first is higher: 130% for the first, 5% for the second.

Going from `CCCc1nc(C(C)(C)O)c(C(=O)OCc2oc(=O)oc2C)n1Cc1ccc(-c2ccccc2-c2nnn[nH]2)cc1` [OLMESARTAN MEDOXOMIL] to `O=C(O)c1cc(=O)[nH]c(=O)[nH]1` [OROTIC ACID], the inhibition at 50 µM rises from 0% to 1%.

`NC[C@H](O)c1ccc(O)c(O)c1` [NOREPINEPHRINE, reference compound] gave an IC50 of 30 µM.

same assay, conditions: 50 µM

Compared with `CN1CCC[C@H]1c1cccnc1.O=C(O)C(O)C(O)C(=O)O.O=C(O)C(O)C(O)C(=O)O` [NICOTINE DITARTRATE], `C[C@@H]1[C@H](O)[C@@H](C)/C=C/C=C/CC/C=C/C=C/C=C/C=C/C(O[C@H]2O[C@H](C)[C@@H](O)[C@H](N)[C@@H]2O)CC2O[C@](O)(CC(O)C(O)CCC(O)CC(O)CC(O)CC(=O)O[C@H]1C)CC(O)C2C(=O)O` (stereo partly shown) [NYSTATIN] is higher in “Inhibition (%)” value: 0 for the first, 41 for the second.

First: NC(=O)c1cc([N+](=O)[O-])cc([N+](=O)[O-])c1 [NITROMIDE]
Second: CC(=O)O[C@H]1CC[C@]2(C)[C@H]3CC=C4[C@@H]5CC(C)(C)CC[C@]5(C(=O)O)CC[C@@]4(C)[C@]3(C)CC[C@H]2C1(C)C [OLEANOLIC ACID ACETATE]
The “Inhibition (%)” value of the first is lower: 1 for the first, 14 for the second.
